Blank lines part the entries; values can stand above or below the compound they belong to.
Tests used:
[1] = 5-FU plasma concentration at steady state during 46-h infusion; format: in vivo, human; conditions: cycle 2; 2400 mg/m^2 46-h continuous infusion
[2] = test system: HCT-116 colon, SCC-25 tongue, A427 NSCL and J82 human carcinoma cell lines; conditions: variety of cell lines (e.g. colon, non-small cell, lung, tongue and bladder); cited from earlier work
[3] = test system: topoisomerase I (Topo I); conditions: cited from earlier work
[4] = Edotecarin plasma pharmacokinetics in cancer patients after 1-h IV infusion; format: in vivo, human; conditions: for AUC (0-inf) / AUC (0–24): 6 mg/m^2 dose only; for AUC (0-inf) / AUC (0–24) / CL (total body-clearance) / T (terminal half-life) / Vss / Dose normalized AUC (0-inf) / Dose normalized AUC (0–24) / Dose normalized Cmax / half-life / Tmax: mean ± SD; for Dose normalized AUC (0-inf) / Dose normalized AUC (0–24) / Dose normalized Cmax: normalized to a 1 mg/m^2 dose; for half-life / Tmax: human, plasma, intravenous; for half-life: T (terminal half-life)
[5] = test system: advanced/metastatic solid tumors; experiment: Tumor response by Response Evaluation Criteria in Solid Tumors; format: in vivo, human; conditions: 14 treated patients, edotecarin/5-FU/LV
[6] = test system: patients with advanced/metastatic solid tumors
[7] = test system: human CRC model (HCT-116); conditions: no added toxicity; cited from earlier work
[8] = test system: irinotecan-naïve patients with CRC; conditions: single agent 13 mg/m^2, cited from earlier work
[9] = test system: P450; conditions: cited from earlier work
[10] = test system: liver micrometastases; conditions: mice; cited from earlier work
[11] = test system: patients with solid tumors; conditions: single agent, cited from earlier work
[12] = test system: cells that have acquired resistance related to P-glycoprotein; conditions: cited from earlier work
[13] = all 14 patients, all cycles, edotecarin with 5-FU/LV

average concentration obtained at steady state [1]: 455.9 ± 222.8 ng/mL
SMILES: O=c1[nH]cc(F)c(=O)[nH]1 [5-FU, 5-fluorouracil]

SMILES: O=C1c2c(c3c4ccc(O)cc4n([C@@H]4O[C@H](CO)[C@@H](O)[C@H](O)[C@H]4O)c3c3[nH]c4cc(O)ccc4c23)C(=O)N1NC(CO)CO [Edotecarin, 6–N-(1-hydroxymethyla-2-hydroxyl) ethylamino-12,13-dihydro-13-(beta-D-glucopyranosyl)-5Hindolo(2,3-a)-pyrrolo(3,4-c)-carbazole-5,7(6H)-dione]
effect of the combination of edotecarin with 5-FU [2]: additive effect
induction of single-strand DNA cleavage ([3]; at different DNA sequences): more effectively than NB-506 or camptothecin
stability of induced DNA-Topo I complexes [3]: more stable than those occurring after exposure to camptothecin or NB-506
AUC (0-inf) ([4]; cycle 1): 124.5 ± 34.7 ng/h/mL
AUC (0–24) ([4]; cycle 1): 91.0 ± 21.6 ng/h/mL
CL (total body-clearance) ([4]; cycle 1): 51.3 ± 12.4 l/h/m^2
T (terminal half-life) ([4]; cycle 1): 25.3 ± 6.4 h
Vss ([4]; cycle 1): 884.4 ± 296.0 l/m^2
Dose normalized AUC (0-inf) ([4]; cycle 1): 20.7 ± 5.4 ng/h/mL
Dose normalized AUC (0–24) ([4]; cycle 1): 15.3 ± 3.6 h/ng/mL
Dose normalized Cmax ([4]; cycle 1): 13.2 ± 2.9 ng/mL
AUC (0-inf) ([4]; cycle 2): 91.7 ± 31.9 ng/h/mL
AUC (0–24) ([4]; cycle 2): 65.3 ± 22.9 ng/h/mL
CL (total body-clearance) ([4]; cycle 2): 73.3± 29.7 l/h/m^2
T (terminal half-life) ([4]; cycle 2): 20.3 ± 4.2 h
Vss ([4]; cycle 2): 1408.7± 999.7 l/m^2
Dose normalized AUC (0-inf) ([4]; cycle 2): 15.4 ± 5.1 ng/h/mL
Dose normalized AUC (0–24) ([4]; cycle 2): 11.1 ± 3.7 h/ng/mL
Dose normalized Cmax ([4]; cycle 2): 10.1 ± 4.4 ng/mL
half-life ([4]; cycle 1): ~25 h
half-life ([4]; cycle 2): ~20 h
Tmax ([4]; cycle 1): 0.48 ± 0.22 h
Tmax ([4]; cycle 2): 0.83 h
disposition after completion of the IV administration ([4]; very rapid initial decline then much slower reduction in plasma concentrations): bi-exponential disposition
patients with progressive disease as best overall response [5]: six patients
patients with stable disease as best overall response [5]: seven patients
patients with complete response as best overall response ([5]; patient with HCC, confirmed by cycle 5): one patient
patients with DLT (grade 3 neutropenia not recovered to grade 1 by day 21) ([6]; 6 mg/m^2 edotecarin cohort without 5-FU bolus, expanded to five patients): one patient
patients with grade 4 neutropenia (DLT) ([6]; 8 mg/m^2 edotecarin cohort, no 5-FU bolus, two of the three patients): 66%
deaths within 30 days of the last treatment dose ([6]; 14 patients): No patients died
patients discontinued from the study because of adverse events (neutropenia) ([6]; 14 patients, 90 cycles): four patients
patients with dose reductions because of AEs (neutropenia) ([6]; 14 patients, 90 cycles): three patients
patients with serious adverse events ([6]; 14 patients, 90 cycles, two treatment-related, two unrelated): four patients
patients with fatigue (AE overall) [6, 13]: 64%
patients with neutropenia (AE overall) [6, 13]: 57%
patients with pyrexia (AE overall) [6, 13]: 50%
patients with vomiting (AE overall) [6, 13]: 42%
patients with fatigue during cycle 1 ([6]; all 14 patients, cycle 1): 35%
patients with nausea during cycle 1 ([6]; all 14 patients, cycle 1): 50%
patients with neutropenia during cycle 1 ([6]; all 14 patients, cycle 1): 50%
changes in clinical laboratory parameters, vital signs measurements, or ECG results ([6]; edotecarin with 5-FU/LV): No clinically important treatment-related changes
gastrointestinal toxicities, especially diarrhea ([6]; edotecarin with 5-FU/LV, in general): minimal
maximum tolerated dose ([6]; edotecarin with infusional 5-FU/LV every 2 weeks, only 6 and 8 mg/m^2 explored): no maximum tolerated dose was declared
efficacy in combination with 5-FU (concurrent treatment) [7]: efficacy superior in combination than with the drugs as single agents
patients with stable disease (including four minor responses) ([8]; 24 patients, 13 patients): 57%
patients with partial response ([8]; 24 patients, three patients): 13%
median time to tumor progression [8]: 7.1 months
patients with grade 3/4 febrile neutropenia ([8]; one patient): 4.2%
formation of active metabolites [9]: does not form any active metabolites
substrate for in vitro P450-mediated metabolism [9]: is not a substrate
inhibition of proliferation of liver micrometastases [10]: highly effective
recommended dose for phase II studies ([11]; 3-week schedule with 1 week permitted for recovery): 13 mg/m^2
recommended phase II dose ([11]; once every 21 days, ref Hurwitz et al. [8]): 13 mg/m^2
activity on P-glycoprotein-related resistant cells [12]: effective

— article PMC2931818 (Anti-cancer drugs, 2010)
